Drawing on paper PMC3129627 (Organic letters, 2011), this text covers IC50 for one molecule.

SMILES strings stand for the structures.

The target in one assay is human AChE (Homo sapiens, UniProt P22303). As to the kind of experiment: Inhibition of human AChE, modified Ellman assay. The format is biochemical. The note with it: racemic (±) synthetic compounds.
For assay [1], the target named is acetyl cholinesterase (AChE) from the housefly (CSMA strain). As to conditions: natural product; cited from earlier work.
Assay [2] addresses acetyl cholinesterase (AChE) from the brown plant hopper. As to conditions: natural product; cited from earlier work.

human AChE, sequence (P22303 32-614): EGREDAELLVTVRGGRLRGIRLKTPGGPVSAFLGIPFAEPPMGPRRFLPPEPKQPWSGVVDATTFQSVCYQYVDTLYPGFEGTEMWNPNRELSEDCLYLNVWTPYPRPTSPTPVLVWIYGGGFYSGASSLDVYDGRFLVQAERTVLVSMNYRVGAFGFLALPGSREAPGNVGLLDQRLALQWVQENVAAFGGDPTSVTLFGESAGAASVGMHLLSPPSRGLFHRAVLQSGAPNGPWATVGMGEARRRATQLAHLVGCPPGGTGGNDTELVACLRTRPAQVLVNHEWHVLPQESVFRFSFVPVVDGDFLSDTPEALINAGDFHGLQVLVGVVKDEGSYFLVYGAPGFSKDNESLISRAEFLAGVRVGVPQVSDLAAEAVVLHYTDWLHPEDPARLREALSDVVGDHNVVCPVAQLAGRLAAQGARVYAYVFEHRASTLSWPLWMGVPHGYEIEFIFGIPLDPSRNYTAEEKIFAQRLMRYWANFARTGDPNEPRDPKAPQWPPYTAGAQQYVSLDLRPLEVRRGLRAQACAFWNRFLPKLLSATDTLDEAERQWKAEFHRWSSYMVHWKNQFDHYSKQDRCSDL

Regarding `CO[P@]1(=O)OC[C@H]2COC(=O)C2=C(C)O1` [compound 1, Cyclophostin], the IC50 was around 40000 pM at human AChE, 760 pM in assay [1] and 760 pM in assay [2].
